Data on four compounds can be found in patent US4181803A, “Propiophenone derivatives and preparation thereof” (Eisai Co., Ltd., priority 1973, dated 1980).

One may read the ED50 as the midpoint of the dose-response relation.

Data set [1] has as its system motor function and maintenance of righting reflex. The data set can be described thus: animal or person. The note with it: Mus musculus, po, 1 h, read-out: Motor Ataxia, ED50. In kind it is in vivo, male d,d-strain mice. How it is done: (§1) Male d,d-strain mice weighing 18 to 22 grs. were used for the experiments.
(§2) Groups of each 10 mice were treated orally and intraperitoneally with a wide range of doses of the above-mentioned compounds or saline.
The numerals given in the following Table 1 indicate ED50 values (in mg/kg) which were calculated 60 minutes after the oral administration of the compounds under test.

Data set [2] concerns mice. In words: Acute toxicity (24-hour mortality). Format: in vivo. The note with it: oral, from Table 1. On the procedure: as §1, §2
The mortality ensued during 24 hours after the oral administration was recorded to determine acute toxicity of the compound under test on the mice.

Data set [3] deals with isolated smooth muscle preparations. The data set can be described thus: Smooth muscle-relaxing activity on isolated smooth muscle preparations. The source says: Additionally, anti-histamine, anti-acetylcholine, anti-serotonin and smooth muscle-relaxing activities of the compounds under test were examined on isolated smooth muscle preparations

`CCc1ccc(C(=O)C(C)CN2CCCCC2)cc1.Cl` (stereo not shown) [Compound A, 4'-ethyl-2-methyl-3-piperidino-propiophenone hydrochloride]: the 50% effective dose (ED50) in data set [1] was found to be 640 mg/kg. Also, the “acute toxicity compared with Compound under control (in words)” value in data set [2] is given as “slightly stronger”. In data set [3], the “smooth muscle-relaxant activity (in words)” value was “strong”.
For `CCCc1ccc(C(=O)C(C)CN2CCCCC2)cc1.Cl` (stereo not shown) [Compound B, 4'-n-propyl-2-methyl-3-piperidino-propiophenone hydrochloride], in that order: 800 mg/kg, “almost equivalent” and “strong”.
As to `CC(CN1CCCCC1)C(=O)c1ccc(C(C)C)cc1.Cl` (stereo not shown) [Compound C, 4'-isopropyl-2-methyl-3-piperidino-propiophenone hydrochloride], the ED50 in data set [1] came out at 84 mg/kg. For the same compound, in data set [3], the “smooth muscle-relaxant activity (in words)” value is “strong”.
Consider `Cc1ccc(C(=O)C(C)CN2CCCCC2)cc1.Cl` (stereo not shown) [Compound for control, 2,4'-dimethyl-3-piperidino-propiophenone hydrochloride, reference compound], for which the median effective dose (ED50) in data set [1] is 800 mg/kg. Besides, in data set [3], the “smooth muscle-relaxant activity (in words)” value is on record as “weak”.
